GI50 and TGI data for ten compounds are collected here from PubChem BioAssay (NCI).

Some test systems named below: SF-539 CNS; SK-MEL-28 melanoma; CAKI-1 renal; SNB-19 CNS; HCT-15 colon; PC-3 prostate; HOP-62 NSCLC; HCC-2998 colon; OVCAR-3 ovarian; SNB-75 CNS.
Common to all, as to assay: NCI-60 cell line screen, 48 h

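Method: 48-hour compound exposure of cells in 96-well plates, five concentrations, linear interpolation of endpoints. Here, GI50 denotes the concentration required for 50% inhibition of growth. Definition used: TGI = concentration required for complete inhibition of growth.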 Some results are limits rather than exact numbers.

In the case of `COc1cc2c(c(OC)c1OC)-c1ccc(O)cc1[C@@H](NC(C)=O)CC2`, the GI50 in the assay on SF-539 CNS is 0.0261 µM; with SK-MEL-28 melanoma it was 0.0528 µM; in the assay with CAKI-1 renal, 0.183 µM; in the assay on SNB-19 CNS it was 0.0554 µM; in the assay with HCT-15 colon it was 0.123 µM; with PC-3 prostate, 0.0456 µM. In addition, the GI50 in the assay with HOP-62 NSCLC is 0.051 µM; with HCC-2998 colon it was 0.0465 µM; in the assay with OVCAR-3 ovarian, 0.0232 µM. The TGI was above 100 µM with SK-MEL-28 melanoma; above 39.8 µM in the assay on CAKI-1 renal; above 100 µM with SNB-19 CNS; above 100 µM in the assay on HCT-15 colon; above 100 µM with PC-3 prostate; above 100 µM with HOP-62 NSCLC. Also, the TGI in the assay on HCC-2998 colon was above 100 µM; in the assay with OVCAR-3 ovarian, 0.0513 µM.
In the case of `COC1C(O)CC(OC2CC(OC3CC(O[C@@H]4C(=O)c5c(cc6cc(OC7CC(OC8CC(O)C(O)C(C)O8)C(O)C(C)O7)c(C)c(O)c6c5O)CC4[C@H](OC)C(=O)O)OC(C)C3O)OC(C)C2O)OC1C` (some centres not stated), the GI50 in the assay with SK-MEL-28 melanoma is 1.48 µM; with CAKI-1 renal, 2.6 µM; with SNB-75 CNS it was 1.03 µM; in the assay on SNB-19 CNS it was 1.68 µM; with HCT-15 colon it was 6.3 µM; with PC-3 prostate, 2.4 µM. The GI50 in the assay on HOP-62 NSCLC was 1.63 µM; in the assay on HCC-2998 colon it was 3.1 µM; in the assay on OVCAR-3 ovarian, 2.06 µM. Also, the TGI in the assay with SK-MEL-28 melanoma is 11.7 µM; in the assay with CAKI-1 renal, above 33.3 µM; in the assay on SNB-75 CNS it was 7.89 µM; in the assay on SNB-19 CNS it was above 33.3 µM; in the assay with HCT-15 colon it was above 33.3 µM; in the assay on PC-3 prostate, above 33.3 µM. For the same compound, the results for the TGI with HOP-62 NSCLC, in the assay with HCC-2998 colon and with OVCAR-3 ovarian were above 33.3 µM, 20 µM and above 33.3 µM, respectively.
On to `CSc1c(C2=C(c3cn(C)c4ccccc34)C(=O)NC2=O)c2ccccc2n1C`, for which the GI50 in the assay with SK-MEL-28 melanoma is 1.85 µM; in the assay on CAKI-1 renal it was 0.741 µM; with SNB-75 CNS it was 0.728 µM; in the assay on SNB-19 CNS it was above 25 µM; with HCT-15 colon, 0.755 µM; with PC-3 prostate it was 0.795 µM. For the same compound, the GI50 was 1.38 µM with HOP-62 NSCLC, 5.31 µM in the assay on HCC-2998 colon and 0.629 µM with OVCAR-3 ovarian. Besides, the TGI in the assay with SK-MEL-28 melanoma was above 25 µM; with CAKI-1 renal it was above 20.4 µM; in the assay on SNB-75 CNS, above 12.6 µM; in the assay on SNB-19 CNS, above 25 µM; with HCT-15 colon, above 25 µM; in the assay on PC-3 prostate, above 25 µM. For the same compound, the TGI in the assay on HOP-62 NSCLC was above 25 µM; with HCC-2998 colon, above 25 µM; with OVCAR-3 ovarian, 2 µM.
Regarding `O=c1c2ccc(S(=O)(=O)c3ccc4c(=O)n5c6ccccc6nc5c5cccc3c45)c3cccc(c32)c2nc3ccccc3n12`, the TGI was above 100 µM with SF-539 CNS; above 100 µM with SK-MEL-28 melanoma; above 100 µM in the assay with CAKI-1 renal; 37.9 µM in the assay with SNB-19 CNS; above 100 µM with HCT-15 colon; above 100 µM in the assay with PC-3 prostate. For the same compound, the TGI in the assay on HOP-62 NSCLC, in the assay with HCC-2998 colon and with OVCAR-3 ovarian was above 100 µM in each case.
On to `BrC(Br)=C1C(=C(Br)Br)C(Br)C1Br` (configuration not stated), for which the TGI is 3.06 µM in the assay with SK-MEL-28 melanoma; 0.898 µM in the assay with CAKI-1 renal; 5.62 µM in the assay on SNB-75 CNS; 15.5 µM in the assay on SNB-19 CNS; 1.73 µM in the assay with HCT-15 colon; 5.42 µM in the assay on PC-3 prostate. For the same compound, the TGI in the assay with HOP-62 NSCLC came to 2.88 µM; with HCC-2998 colon, 0.777 µM; in the assay on OVCAR-3 ovarian, 2.15 µM.
As to `Oc1ccc(O)c(-c2cn3c(n2)SCC3)c1`, the GI50 with CAKI-1 renal was 2.47 µM; in the assay with SNB-19 CNS, 21.3 µM; in the assay with HCT-15 colon, 19.1 µM; in the assay on PC-3 prostate, 19.1 µM; in the assay with HCC-2998 colon, 19.6 µM; in the assay on OVCAR-3 ovarian it was 9.36 µM. Also, the TGI worked out at 5.57 µM in the assay on CAKI-1 renal; 45.4 µM with SNB-19 CNS; 36.9 µM with HCT-15 colon; 38 µM with PC-3 prostate; 36.2 µM in the assay with HCC-2998 colon; 28.1 µM in the assay on OVCAR-3 ovarian.
In the case of `O=c1[nH]c2ccccc2c2nc3ccccc3n12`, the TGI in the assay with SF-539 CNS was 69.1 µM; in the assay on CAKI-1 renal it was 93.7 µM; in the assay with SNB-19 CNS it was above 100 µM; with HCT-15 colon it was above 100 µM; in the assay with PC-3 prostate, above 100 µM; in the assay with HOP-62 NSCLC, above 100 µM. The TGI in the assay on HCC-2998 colon and in the assay on OVCAR-3 ovarian was above 100 µM each time.
As to `Cc1nc2c(c(N3CCCc4ccccc43)n1)CCC2`, the GI50 is 11.7 µM in the assay with SK-MEL-28 melanoma; below 0.01 µM with CAKI-1 renal; below 0.01 µM with SNB-19 CNS; below 0.01 µM with HCT-15 colon; below 0.01 µM with PC-3 prostate; below 0.01 µM in the assay on HOP-62 NSCLC. Moreover, the GI50 with HCC-2998 colon is below 0.01 µM. The TGI in the assay with SK-MEL-28 melanoma, in the assay on CAKI-1 renal, with SNB-19 CNS, in the assay on HCT-15 colon, in the assay on PC-3 prostate and in the assay with HOP-62 NSCLC was above 100 µM each time. In the assay with HCC-2998 colon, this compound had a TGI above 100 µM.
Consider `O=S(=O)(CCN1CCOCC1)Nc1cc(-c2ccc3ncnc(Nc4ccc(F)c(Cl)c4)c3c2)cnc1Cl`, for which the GI50 in the assay on SF-539 CNS was 0.418 µM; with SK-MEL-28 melanoma, 0.297 µM; with SNB-19 CNS, 0.453 µM; with HCT-15 colon, 1.23 µM; in the assay on PC-3 prostate, 0.36 µM; in the assay with HOP-62 NSCLC, 0.578 µM. Moreover, the GI50 in the assay with HCC-2998 colon is 1.05 µM; in the assay with OVCAR-3 ovarian it was 0.391 µM. The TGI amounted to 2.69 µM with SF-539 CNS; 8.62 µM with SK-MEL-28 melanoma; 4.85 µM in the assay with SNB-19 CNS; 28.9 µM with HCT-15 colon; 15.1 µM in the assay with PC-3 prostate; 14.2 µM with HOP-62 NSCLC. Moreover, the TGI was determined as 7.73 µM with HCC-2998 colon and 3.91 µM in the assay with OVCAR-3 ovarian.
With `Cc1c(O)c(N=Nc2nc3ccccc3s2)c2ccccc2c1O`, the GI50 with SF-539 CNS was 18.3 µM; in the assay on CAKI-1 renal, 21.1 µM; with SNB-19 CNS, 28.4 µM; with HCT-15 colon, 23.3 µM; with PC-3 prostate, 32 µM; with HOP-62 NSCLC it was above 50 µM. For the same compound, the GI50 in the assay with HCC-2998 colon was above 50 µM; in the assay with OVCAR-3 ovarian it was 12.3 µM. The TGI with SF-539 CNS, in the assay with CAKI-1 renal, in the assay with SNB-19 CNS, in the assay with HCT-15 colon, with PC-3 prostate and with HOP-62 NSCLC was above 50 µM in each case. Moreover, the TGI in the assay on HCC-2998 colon and with OVCAR-3 ovarian was above 50 µM each time.
